Measurements from patent US10583206B2, “Radioactive probe for detecting hydrogen sulfide” (KYUNGPOOK NATIONAL UNIVERSITY INDUSTRY-ACADEMIC COOPERATION …, priority 2015, dated 2020).

Legend:
[1] = Test of hydrogen sulfide detection sensitivity (% decomplexation with NaHS, radio-TLC); format: physicochemical; settings: for % decomplexation: 37° C. for 15 minutes; for % decomplexation against 100 μM NaHS solution: Table 3
Description: To measure hydrogen sulfide detection sensitivity of the ^64Cu-labeled complex compound according to the present disclosure, the following experiment was performed.
About 45 μCi-55 μCi of ^64Cu-labeled complex compound (250 μL of triple distilled water) was mixed with various concentrations of NaHS solution (250 µL of triple distilled water), and stirred at 37° C. for 15 minutes (a total volume used in the reaction was equally 500 μL). After completion of the reaction, the resulting products were strongly stirred to mix appropriately.
Formation of copper sulfide (^64CuS) was confirmed by quantification of % decomplexation by using a radio-TLC scanner, and results are shown in the following Tables 2 and 3.

[2] = Test of hydrogen sulfide detection over time (^64CuS formation, radio-TLC); format: physicochemical; design: unit not given here; settings: 100 μM NaHS, 37° C.
Description: To examine reactivity of the ^64Cu-labeled complex compound according to the present disclosure over time, the following experiment was performed.
A detailed experimental method is as follows.
About 45 μCi-50 μCi of ^64Cu-labeled complex compound (250 μL of triple distilled water) was mixed with 100 μM of NaHS solution ([…] of triple distilled water), and stirred at 37° C. for 15 minutes. Formation of copper sulfide (^64CuS) was quantified by using a radio-TLC scanner.

[3] = tested on: Paw inflammation model; format: in vivo, Balb/c or ICR mice
Description: (1) Paw Pain Inflammation Model
A small amount of CFA (complete Freund's adjuvant) or formalin was injected into only one paw (right) of the hind paws of Balb/c or ICR mice to establish inflammation models. 1 day after injection of the inflammation inducer, the mice were used in imaging or other in vivo experiments.
It is a known fact that inflamed sites show high concentrations of hydrogen sulfide.
Nuclear medicine imaging was measured by using an Inveon PET/CT system of Siemens Healthcare, and optical imaging was measured by using IVIS spectrum CT equipment. Cherenkov radiation emitted from ^64Cu was measured by using a highly sensitive CCD (charge-coupled device) camera.
Imaging was measured for 1 minute to 5 minutes, and a radiation dose was about 50 μCi to 2000 μCi, and photographs were variously taken as needed, such as immediately after first injection, at 1 hour, 4 hours, and 24 hours later.

In the case of [64Cu+2].c1ccc2c(CN3CCNCCNCCNCC3)c3ccccc3cc2c1 [Example 2], the “% decomplexation” value ([1]; NaHS 0 μM) is reported as 0%, the “% decomplexation” value ([1]; NaHS 1 μM) is reported as 0% and the “% decomplexation” value ([1]; NaHS 10 μM) is reported as 0%. The “% decomplexation” value ([1]; NaHS 15 μM) was 0%, the “% decomplexation” value ([1]; NaHS 20 μM) was 15% and the “% decomplexation” value ([1]; NaHS 50 μM) was 56%. The “% decomplexation” value ([1]; NaHS 100 μM) was 100%, the “Formation of copper sulfide (^64CuS) over time” value (“Formation … over time” for short) ([2]; 10 sec) was 21 and the “Formation … over time” value ([2]; 30 sec) was 22. The “Formation … over time” value ([2]; 60 sec) was 33, the “Formation … over time” value ([2]; 5 min) was 82 and the “Formation … over time” value ([2]; 10 min) was 100. The “Formation … over time” value ([2]; 15 min) was 100 and the “selective uptake in inflamed sites” value ([3]; optical imaging and nuclear medicine imaging) was “selective uptake”.
In the case of CC1CC[N]2C3CCCCC3[N]3C(C)CC[N]4C5CCCCC5[N]1[64Cu]423 (stereo not shown) [Example 9], the “uptake in inflamed paw versus opposite paw” value ([3]; optical and nuclear medicine imaging performed 2 hours later) is reported as “higher uptakes”.
In the case of CN1CCCNCCNCCNCC1.[64Cu+2] [Example 24], the “% decomplexation against 100 μM NaHS solution” value [1] is reported as 0%.
For C1CNCCN2CCCNCCN(C1)CCC2 [Example 25], the “% decomplexation against 100 μM NaHS solution” value [1] was 0%.
With C/C(=N\O)[C@@H](C)NCC(C)(C)CN[C@H](C)/C(C)=N/O [Example 26] the “% decomplexation against 100 μM NaHS solution” value [1] was 62.43 ± 0.87%.
In the case of c1ccc(CNCc2ccccn2)nc1 [Example 33], the “% decomplexation against 100 μM NaHS solution” value [1] is reported as 26.6%.
